Results: US20260262643A1, “HERBICIDAL BENZOXAZINES” (FMC CORPORATION, priority 2022, published 2026)

Tests used:
barnyardgrass [1] = test: Test C preemergence; format: in vivo, Echinochloa crusgalli; details: 0 to 100 scale (0 no effect, 100 complete control); for Barnyardgrass plant response rating: 125 g ai/ha, preemergence; for Plant response rating, Barnyardgrass: Preemergence, 500 g ai/ha, visual rating after 10 days
How it was run: (§1)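 Visual injury score, 0–100 (100 = complete control), taken 10 days after treatment relative to untreated controls. Pre: directed spray onto soil over sown seeds. Post: foliar spray at one- to two-leaf stage, 2–10 cm. Solvent/surfactant formulation; loam–sand soil; greenhouse.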

blackgrass [2] = test: Test C preemergence; format: in vivo, Alopecurus myosuroides; details: 0 to 100 scale (0 no effect, 100 complete control); for Plant response rating, Blackgrass: Preemergence, 500 g ai/ha, visual rating after 10 days; for Blackgrass plant response rating: Test C, preemergence, 125 g ai/ha
How it was run: as §1

corn [3] = test: Test C preemergence; format: in vivo, Zea mays; details: 0 to 100 scale (0 no effect, 100 complete control); for Plant response rating, Corn: Preemergence, 500 g ai/ha, visual rating after 10 days; for Corn plant response rating: Test C, preemergence, 125 g ai/ha
How it was run: as §1

green foxtail [4] = test: Test C preemergence; format: in vivo, Setaria viridis; details: 0 to 100 scale (0 no effect, 100 complete control); for Plant response rating, Foxtail, Green: Preemergence, 500 g ai/ha, visual rating after 10 days; for Foxtail, Green plant response rating: Test C, preemergence, 125 g ai/ha
How it was run: as §1

kochia [5] = test: Test C preemergence; format: in vivo, Bassia scoparia; details: 0 to 100 scale (0 no effect, 100 complete control); for Plant response rating, Kochia: Preemergence, 500 g ai/ha, visual rating after 10 days; for Kochia plant response rating: Test C, preemergence, 125 g ai/ha
How it was run: as §1

oat, wild [6] = test: Test C preemergence; format: in vivo, Avena fatua; details: 0 to 100 scale (0 no effect, 100 complete control); for Plant response rating, Oat, Wild: Preemergence, 500 g ai/ha, visual rating after 10 days; for Oat, Wild plant response rating: Test C, preemergence, 125 g ai/ha
How it was run: as §1

pigweed, palmer [7] = test: Test C preemergence; format: in vivo, Amaranthus palmeri; details: 0 to 100 scale (0 no effect, 100 complete control); for Plant response rating, Pigweed, Palmer: Preemergence, 500 g ai/ha, visual rating after 10 days; for Pigweed, Palmer plant response rating: Test C, preemergence, 125 g ai/ha
How it was run: as §1

ragweed [8] = test: Test C preemergence; format: in vivo, Ambrosia artemisiifolia; details: 0 to 100 scale (0 no effect, 100 complete control); for Plant response rating, Ragweed: Preemergence, 500 g ai/ha, visual rating after 10 days; for Ragweed plant response rating: Test C, preemergence, 125 g ai/ha
How it was run: as §1

ryegrass, Italian [9] = test: Test C preemergence; format: in vivo, Lolium multiflorum; details: 0 to 100 scale (0 no effect, 100 complete control); for Plant response rating, Ryegrass, Italian: Preemergence, 500 g ai/ha, visual rating after 10 days; for Ryegrass, Italian plant response rating: Test C, preemergence, 125 g ai/ha
How it was run: as §1

soybean [10] = test: Test C preemergence; format: in vivo, Glycine max; details: 0 to 100 scale (0 no effect, 100 complete control); for Plant response rating, Soybean: Preemergence, 500 g ai/ha, visual rating after 10 days; for Soybean plant response rating: Test C, preemergence, 125 g ai/ha
How it was run: as §1

wheat [11] = test: Test C preemergence; format: in vivo, Triticum aestivum; details: 0 to 100 scale (0 no effect, 100 complete control); for Plant response rating, Wheat: Preemergence, 500 g ai/ha, visual rating after 10 days; for Wheat plant response rating: Test C, preemergence, 125 g ai/ha
How it was run: as §1

barnyardgrass [12] = test: Test C postemergence; format: in vivo, Echinochloa crusgalli; details: 10 days
How it was run: as §1

blackgrass [13] = test: Test C postemergence; format: in vivo, Alopecurus myosuroides; details: 10 days
How it was run: as §1

corn [14] = test: Test C postemergence; format: in vivo, Zea mays; details: 10 days
How it was run: as §1

green foxtail [15] = test: Test C postemergence; format: in vivo, Setaria viridis; details: 10 days
How it was run: as §1

kochia [16] = test: Test C postemergence; format: in vivo, Bassia scoparia; details: 10 days
How it was run: as §1

oat, wild [17] = test: Test C postemergence; format: in vivo, Avena fatua; details: 10 days
How it was run: as §1

pigweed, palmer [18] = test: Test C postemergence; format: in vivo, Amaranthus palmeri; details: 10 days
How it was run: as §1

ragweed [19] = test: Test C postemergence; format: in vivo, Ambrosia artemisiifolia; details: 10 days
How it was run: as §1

ryegrass, Italian [20] = test: Test C postemergence; format: in vivo, Lolium multiflorum; details: 10 days
How it was run: as §1

soybean [21] = test: Test C postemergence; format: in vivo, Glycine max; details: 10 days
How it was run: as §1

wheat [22] = test: Test C postemergence; format: in vivo, Triticum aestivum; details: 10 days
How it was run: as §1

galium = test: Test C postemergence; format: in vivo, Galium aparine; details: 10 days
How it was run: as §1

horseweed = test: Test C postemergence; format: in vivo, Erigeron canadensis; details: 10 days
How it was run: as §1

barnyardgrass [23] = test: Test D flooded paddy test; format: in vivo, Echinochloa crus-galli; details: 250 g ai/ha, applied to paddy water, visual rating after 13 to 14 days, scale 0 to 100 (0 no effect, 100 complete control)
How it was run: (§2)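 Plants grown to the 2-leaf stage; pots flooded to 3 cm above soil at treatment and held at that depth throughout. Test compounds applied directly to the paddy water. After 13 to 14 days in a greenhouse, response was rated visually versus controls on a 0 (no effect) to 100 (complete control) scale.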

ducksalad = test: Test D flooded paddy test; format: in vivo, Heteranthera limosa; details: 250 g ai/ha, applied to paddy water, visual rating after 13 to 14 days, scale 0 to 100 (0 no effect, 100 complete control)
How it was run: as §2

rice = test: Test D flooded paddy test; format: in vivo, Oryza sativa; details: 250 g ai/ha, applied to paddy water, visual rating after 13 to 14 days, scale 0 to 100 (0 no effect, 100 complete control)
How it was run: as §2

sedge, umbrella = test: Test D flooded paddy test; format: in vivo, Cyperus difformis; details: 250 g ai/ha, applied to paddy water, visual rating after 13 to 14 days, scale 0 to 100 (0 no effect, 100 complete control)
How it was run: as §2

[24] = 125 g ai/ha, postemergence, 0 to 100 scale, 0 no effect, 100 complete control
[25] = Postemergence, 500 g ai/ha, visual 0 to 100 scale (0 no effect, 100 complete control)

Cc1ccc(-n2cnc(C3(C)CCC3)n2)cc1C(=O)N1C[C@H](C)Oc2c(Cl)cccc21 [Compound 167]
Barnyardgrass plant response rating (barnyardgrass [1]): 90 | Plant response rating, Barnyardgrass (barnyardgrass [1]): 100 | Plant response rating, Blackgrass (blackgrass [2]): 70 | Blackgrass plant response rating (blackgrass [2]): 30 | Plant response rating, Corn (corn [3]): 0 | Corn plant response rating (corn [3]): 0 | Plant response rating, Foxtail, Green (green foxtail [4]): 100 | Foxtail, Green plant response rating (green foxtail [4]): 100 | Plant response rating, Kochia (kochia [5]): 100 | Kochia plant response rating (kochia [5]): 90 | Plant response rating, Oat, Wild (oat, wild [6]): 50 | Oat, Wild plant response rating (oat, wild [6]): 20 | Plant response rating, Pigweed, Palmer (pigweed, palmer [7]): 100 | Pigweed, Palmer plant response rating (pigweed, palmer [7]): 100 | Plant response rating, Ragweed (ragweed [8]): 80 | Ragweed plant response rating (ragweed [8]): 10 | Plant response rating, Ryegrass, Italian (ryegrass, Italian [9]): 90 | Ryegrass, Italian plant response rating (ryegrass, Italian [9]): 80 | Plant response rating, Soybean (soybean [10]): 80 | Soybean plant response rating (soybean [10]): 40 | Plant response rating, Wheat (wheat [11]): 0 | Wheat plant response rating (wheat [11]): 0 | Plant response rating, Barnyardgrass (barnyardgrass [12]; [24]): 20 | Plant response rating, Barnyardgrass (barnyardgrass [12]; [25]): 60 | Plant response rating, Blackgrass (blackgrass [13]; [24]): 0 | Plant response rating, Blackgrass (blackgrass [13]; [25]): 70 | Plant response rating, Corn (corn [14]; [24]): 10 | Plant response rating, Corn (corn [14]; [25]): 20 | Plant response rating, Foxtail, Green (green foxtail [15]; [24]): 50 | Plant response rating, Foxtail, Green (green foxtail [15]; [25]): 90 | Plant response rating, Kochia (kochia [16]; [24]): 90 | Plant response rating, Kochia (kochia [16]; [25]): 100 | Plant response rating, Oat, Wild (oat, wild [17]; [24]): 0 | Plant response rating, Oat, Wild (oat, wild [17]; [25]): 20 | Plant response rating, Pigweed, Palmer (pigweed, palmer [18]; [24]): 90 | Plant response rating, Pigweed, Palmer (pigweed, palmer [18]; [25]): 100 | Plant response rating, Ragweed (ragweed [19]; [24]): 90 | Plant response rating, Ragweed (ragweed [19]; [25]): 90 | Plant response rating, Ryegrass, Italian (ryegrass, Italian [20]; [24]): 20 | Plant response rating, Ryegrass, Italian (ryegrass, Italian [20]; [25]): 80 | Plant response rating, Soybean (soybean [21]; [24]): 100 | Plant response rating, Soybean (soybean [21]; [25]): 100 | Plant response rating, Wheat (wheat [22]; [24]): 10 | Plant response rating, Wheat (wheat [22]; [25]): 20 | Plant response rating, Galium (galium; [24]): 90 | Plant response rating, Galium (galium; [25]): 100 | Plant response rating, Horseweed (horseweed; [24]): 10 | Plant response rating, Horseweed (horseweed; [25]): 30 | Plant response rating, Barnyardgrass (Flood) (barnyardgrass [23]): 0 | Plant response rating, Ducksalad (Flood) (ducksalad): 0 | Plant response rating, Rice (Flood) (rice): 0 | Plant response rating, Sedge, Umbrella (Flood) (sedge, umbrella): 0

CC(C)c1ncn(-c2ccc(SC(F)(F)F)c(C(=O)N3C[C@H](C)Oc4c(Cl)cccc43)c2)n1 [Compound 249]
Plant response rating, Barnyardgrass (barnyardgrass [1]): 20 | Barnyardgrass plant response rating (barnyardgrass [1]; Test C): 20 | Plant response rating, Blackgrass (blackgrass [2]): 60 | Blackgrass plant response rating (blackgrass [2]): 20 | Plant response rating, Corn (corn [3]): 0 | Corn plant response rating (corn [3]): 0 | Plant response rating, Foxtail, Green (green foxtail [4]): 90 | Foxtail, Green plant response rating (green foxtail [4]): 90 | Plant response rating, Kochia (kochia [5]): 0 | Kochia plant response rating (kochia [5]): 0 | Plant response rating, Oat, Wild (oat, wild [6]): 0 | Oat, Wild plant response rating (oat, wild [6]): 0 | Plant response rating, Pigweed, Palmer (pigweed, palmer [7]): 30 | Pigweed, Palmer plant response rating (pigweed, palmer [7]): 30 | Plant response rating, Ragweed (ragweed [8]): 0 | Ragweed plant response rating (ragweed [8]): 0 | Plant response rating, Ryegrass, Italian (ryegrass, Italian [9]): 60 | Ryegrass, Italian plant response rating (ryegrass, Italian [9]): 40 | Plant response rating, Soybean (soybean [10]): 20 | Soybean plant response rating (soybean [10]): 0 | Plant response rating, Wheat (wheat [11]): 0 | Wheat plant response rating (wheat [11]): 0 | Plant response rating, Barnyardgrass (barnyardgrass [12]; [24]): 10 | Plant response rating, Barnyardgrass (barnyardgrass [12]; [25]): 10 | Plant response rating, Blackgrass (blackgrass [13]; [24]): 0 | Plant response rating, Blackgrass (blackgrass [13]; [25]): 0 | Plant response rating, Corn (corn [14]; [24]): 0 | Plant response rating, Corn (corn [14]; [25]): 10 | Plant response rating, Foxtail, Green (green foxtail [15]; [24]): 30 | Plant response rating, Foxtail, Green (green foxtail [15]; [25]): 30 | Plant response rating, Kochia (kochia [16]; [24]): 50 | Plant response rating, Kochia (kochia [16]; [25]): 80 | Plant response rating, Oat, Wild (oat, wild [17]; [24]): 0 | Plant response rating, Oat, Wild (oat, wild [17]; [25]): 0 | Plant response rating, Pigweed, Palmer (pigweed, palmer [18]; [24]): 40 | Plant response rating, Pigweed, Palmer (pigweed, palmer [18]; [25]): 70 | Plant response rating, Ragweed (ragweed [19]; [24]): 0 | Plant response rating, Ragweed (ragweed [19]; [25]): 0 | Plant response rating, Ryegrass, Italian (ryegrass, Italian [20]; [24]): 0 | Plant response rating, Ryegrass, Italian (ryegrass, Italian [20]; [25]): 0 | Plant response rating, Soybean (soybean [21]; [24]): 100 | Plant response rating, Soybean (soybean [21]; [25]): 100 | Plant response rating, Wheat (wheat [22]; [24]): 10 | Plant response rating, Wheat (wheat [22]; [25]): 10 | Plant response rating, Galium (galium; [24]): 90 | Plant response rating, Horseweed (horseweed; [24]): 0 | Plant response rating, Horseweed (horseweed; [25]): 0 | Plant response rating, Barnyardgrass (Flood) (barnyardgrass [23]): 0 | Plant response rating, Ducksalad (Flood) (ducksalad): 0 | Plant response rating, Rice (Flood) (rice): 0 | Plant response rating, Sedge, Umbrella (Flood) (sedge, umbrella): 0
